Data on 5 compounds can be found in patent US7358046B2, “Sensitivity test to predict efficacy of anti-cancer therapies” (Canbas Co., Ltd., priority 2003, dated 2008).

“Also recorded” adds a separate entry of the source. Non-standard residues stand in square brackets, D forms with d. No end group written: not given here. dPhe(F5) = N[C@H](Cc1c(F)c(F)c(F)c(F)c1F)C(=O)O; dBpa = N[C@H](Cc1ccc(C(=O)c2ccccc2)cc1)C(=O)O; dCha = N[C@H](CC1CCCCC1)C(=O)O

One assay has as its system HCT-116 cells. The assay can be described thus: In vitro sensitivity test: DNA content of cells by flow cytometry. In kind it is cell-based, human. The settings on record: for change in DNA content (cell cycle distribution) of HCT-116 cells: compound alone, 2, 10, or 50 μM for 3 hr. Here is the method: Cells from a human colon cancer derived cell line HCT-116 were used in an in vitro sensitivity test that measures DNA content of cells by flow cytometry, and in an in vivo efficacy test that measures xenograft tumor growth. The effects of conventional anti-cancer therapy CPT-11, novel candidate anti-cancer therapy CBDC402, a combination of the two compounds, or control treatments (vehicle), were measured in each test system and compared.
In vitro sensitivity test: HCT-116 cells (from ATCC) were cultured in McCOY5A medium (Sigma Chemical Co.) with L-glutamine (Sigma Chemical Co.), penicillin-streptomycin, and 10% fetal calf serum at 37° C. in 5% CO2/air. Cultured cells (at 1.6×10^5) were pelleted by centrifugation, and then re-suspended and incubated in 300 μl Krishan's solution (0.1% sodium citrate, 50 μg/ml propidium iodide, 20 μg/ml RNase A, 0.5% Nonidet P-40) for 1 h at 4° C. The quantity of DNA in each cell was determined using a fluorescence activated cell scanner (FACScan® Beckton Dickinson, Mountain View, Calif.), and results were analyzed using CELLQuest® software (Beckton Dickinson).
The DNA content of each cell was measured at 24 hr.
In vitro sensitivity test: The in vitro sensitivity test using HCT-116 cells and flow cytometry was carried out as described above, with the modification that CBDC004 was used instead of CBDC402. The DNA content of each cell was measured at 24 hr.

For another assay, the system named is HCT-116 xenografts. The assay can be described thus: Surrogate in vivo efficacy test: HCT-116 xenograft tumor assay. The settings on record: for HCT-116 xenograft tumor growth, combination: intraperitoneal, two weeks. Details: species or system SCID mice. How it is done:
HCT-116 cells were implanted by subcutaneous injection of the cells into male SCID mice (Severe Combined Immunodeficient mice, Charles River Lab., Wilmington, Mass.). Treatment was initiated when the tumor size reached about 0.2 cm^3 in size. The size of tumors was measured three times per week, using calipers. Tumor volumes were calculated as follows: volume (cm^3)=[width (mm)^2×length (mm)]/2000. Mean tumor sizes (volumes) with standard deviation were plotted (FIG. 1b). Animals were housed in accordance with guidelines from American Association for Laboratory Animal Care and the protocols were approved by institutional animal care committee of CanBas Co. Ltd
Established HCT-116 xenografts (0.2 cm^3) in SCID mice were treated for two weeks by intraperitoneal injection of the following: vehicle alone (DMSO, two times per week), CBDC402 (40 mg/kg; two times per week), CPT-11 (20 mg/kg; one time per week) or the combination of CBDC402 (two times per week) and CPT-11 (one time per week). […] The results correlate with the prediction based on results from the in vitro sensitivity test using CBDC004 as described above.
Surrogate in vivo efficacy test: A surrogate in vivo efficacy test measuring the effects of various compounds on HCT-116 xenograft tumor growth was carried out as described above, with the modification that CBDC004 was used instead of CBDC402.
Established HCT-116 xenografts (0.2 cm^3) in SCID mice were treated for two weeks by intraperitoneal injection of the following: vehicle alone (DMSO, two times per week), CBDC004 (30 mg/kg; three times per week), CPT-11 (20 mg/kg; one time per week) or the combination of […] (two times per week) and CPT-11 (one time per week). […] The results correlate with the prediction based on results from the in vitro sensitivity test using CBDC004 as described above.

Assay [1] relates to MIAPaCa2 cells xenograft tumors. The assay can be described thus: Surrogate in vivo efficacy test: MIAPaCa2 xenograft tumor assay. Details: species or system SCID mice. How it is done:
Surrogate in vivo efficacy test: A surrogate in vivo efficacy test using the xenograft tumor assay was carried out as described above, with modifications. MIAPaCa2 cells (n=5) were implanted by subcutaneous injection of the cells to male SCID mice (Charles River Lab., Wilmington, Mass.). Treatment was initiated when tumor size reached about 0.15 cm^3 in size. The size of tumors was measured three times per week, using calipers. Tumor volumes were calculated as follows: volume (cm^3)=[width (mm)^2×length (mm)]/2000. Mean tumor sizes (volumes) with standard deviation were plotted (FIG. 1b). Animals were housed in accordance with guidelines from American Association for Laboratory Animal Care and the protocols were approved by institutional animal care committee of CanBas Co. Ltd.
Established […] xenografts (0.2 cm^3) in SCID mice were treated two times each week for two weeks (i.e., on day 1, 5, 8, and 12) by intraperitoneal injection of the following: vehicle alone (DMSO); CBP501 (120 mg/m^2); cisplatin (CDDP, 3 mg/kg); a combination of CBP501 (30 mg/m^2) and cisplatin (CDDP, 3 mg/kg); a combination of CBP501 (60 mg/m^2) and cisplatin (CDDP, 3 mg/kg); or CBP501 (120 mg/m^2) and cisplatin (CDDP, 3 mg/kg).

For the next assay, the system named is MIAPaCa2 cells. The assay can be described thus: In vitro sensitivity test: laser scanning cytometry of cultured xenograft tumor cells on chamber slides. The settings on record: for anti-cancer efficacy in vitro, human cancerous cells in culture: each compound alone (summary of Example 3). A general note: In xenograft studies the graft and the host belong to different species.

Where [2] appears, read: CPT-11 alone, 50 μM for 3 h, DNA content measured at 24 hr.
Setting [3] is: compound 2, 10, 50 μM for 3 hr in combination with CPT-11 50 μM for 3 hr, measured at 24 hr.
Setting [4] is: CBP501 10 μM combined with cisplatin 10 μg/ml, 3 hours, then cultured 24 to 48 hours.

For the compound `CCc1c2c(nc3ccc(OC(=O)N4CCC(N5CCCCC5)CC4)cc13)-c1cc3c(c(=O)n1C2)COC(=O)[C@]3(O)CC` [CPT-11, irinotecan, reference compound], in the assay on HCT-116 cells (setting [2]), the “change in cell cycle distribution (G1, G2/M populations) of HCT-116 cells” value was “changed the cell cycle distribution dramatically” and the “sub-G1 (dead cell) population of HCT-116 cells” value was “no increase in the sub-G1 population”. Further, the “HCT-116 xenograft tumor growth” value with HCT-116 xenografts (CPT-11 alone, 20 mg/kg intraperitoneal, one time per week for two weeks) was “moderate tumor suppressive activity”.

As to `Cc1ccc(OC(=O)c2ccc(Br)cc2)cc1` [CBDC402, 4-Bromo-benzoic acid p-tolyl ester], in the assay on HCT-116 cells (setting [3]), the “change in DNA content / G2/M and G1 populations of HCT-116 cells, combination treatment” value is “decrease in the accumulation of both the CPT-11-induced G2/M population and G1 population”; the “subG1 (dead cell) population of HCT-116 cells, combination treatment” value is “increase in the subG1 (dead cell) population”. Further, the “change in DNA content (cell cycle distribution) of HCT-116 cells” value in the assay on HCT-116 cells (DNA content measured at 24 hr) is listed as “did not alter the DNA content”. The “HCT-116 xenograft tumor growth, combination” value in the assay with HCT-116 xenografts (CBDC402 (two times per week) plus CPT-11 (one time per week)) is given as “strong tumor suppressive activity”. Besides, the “HCT-116 xenograft tumor growth” value with HCT-116 xenografts (CBDC402 alone, 40 mg/kg intraperitoneal, two times per week for two weeks) was “did not suppress tumor growth significantly”.

For the compound “(d-Bpa)(d-Ser)(d-Trp)(d-Ser)(d-Phe-2,3,4,5,6-F)(d-Cha)(d-Arg)(d-Arg)(d-Arg)(d-Gln)(d-Arg)(d-Arg) ([dBpa][dS][dW][dS][dPhe(F5)][dCha][dR][dR][dR][dQ][dR][dR]) [CBP501]”, the “xenograft tumor growth, combination” value in assay [1] (CBP501 (30, 60 or 120 mg/m^2) combined with cisplatin 3 mg/kg, intraperitoneal, two times each week for two weeks) is recorded as “more effective than either compound alone; also recorded: significant inhibition of xenograft tumor growth”. Besides, in assay [1] (CBP501 alone, 120 mg/m^2 intraperitoneal, two times each week for two weeks (day 1, 5, 8, 12)), the xenograft tumor growth result was “little or no effect on tumor growth; also recorded: did not significantly inhibit xenograft tumor growth”. Also, in the assay with MIAPaCa2 cells (setting [4]), the “G1 and G2/M peaks of cultured MIAPaCa2 xenograft tumor cells, combination” value is “dramatically decreased both the G1 and G2/M peaks”; the “sub-G1 population of cultured MIAPaCa2 xenograft tumor cells, combination” value is recorded as “increased the sub-G1 population”. Further, in the assay with MIAPaCa2 cells (CBP501 alone, 10 μM for 3 hours, then cultured 24 to 48 hours), the “change in cell cycle distribution of cultured MIAPaCa2 xenograft tumor cells” value was “cell cycle distribution was not significantly altered”. The “cell death in the population of tumor cells by direct observation of cell morphology, combination” value with MIAPaCa2 cells (CBP501 combined with cisplatin) is on record as “dramatic increase in cell death”. In the assay with MIAPaCa2 cells (CBP501 combined with cisplatin (summary of Example 3)), the “anti-cancer effect in vitro, human cancerous cells in culture, combination” value is “more pronounced anti-cancer effect”. Besides, the “anti-cancer efficacy in vitro, human cancerous cells in culture” value in the assay on MIAPaCa2 cells is listed as “some anti-cancer efficacy”.

`N.N.[Cl][Pt][Cl]` [cisplatin, reference compound]: the xenograft tumor growth entry in assay [1] (cisplatin alone, 3 mg/kg intraperitoneal, two times each week for two weeks) was “little or no effect on tumor growth”. The “change in cell cycle distribution of cultured MIAPaCa2 xenograft tumor cells” value with MIAPaCa2 cells (cisplatin alone, 10 μg/ml for 3 hours, then cultured 24 to 48 hours) is reported as “accumulation of cells in G2/M phase”. In addition, the “anti-cancer efficacy in vitro, human cancerous cells in culture” value with MIAPaCa2 cells is listed as “some anti-cancer efficacy”.

Turning to `COc1ccc(OC(=O)c2ccc(Cl)cc2)cc1` [CBDC004, 4-Chloro-benzoic acid 4-methoxy-phenyl ester], the “change in DNA content / G2/M and G1 populations of HCT-116 cells, combination treatment” value with HCT-116 cells (setting [3]) is “did not change the DNA content more than CPT-11 alone”. The “change in DNA content (cell cycle distribution) of HCT-116 cells” value in the assay on HCT-116 cells (DNA content measured at 24 hr) is recorded as “did not alter the DNA content”. Besides, the “HCT-116 xenograft tumor growth” value in the assay with HCT-116 xenografts (CBDC004 alone, 30 mg/kg intraperitoneal, three times per week for two weeks) is “did not suppress tumor growth”. Further, in the assay on HCT-116 xenografts (CBDC004 in combination with CPT-11 (one time per week)), the “HCT-116 xenograft tumor growth, combination” value was “did not suppress tumor growth”.
